{
  "source": "patent US20240415878A1",
  "about": "“Compositions and Methods for Modulating Mitochondrial Function” (Board of Regents, The University of Texas System, priority 2021, published 2024)",
  "key": {"Bacterial CorA": {"biological_target": "Bacterial CorA (Salmonella typhimurium, UniProt P0A2R8)", "sequence (P0A2R8 whole entry)": "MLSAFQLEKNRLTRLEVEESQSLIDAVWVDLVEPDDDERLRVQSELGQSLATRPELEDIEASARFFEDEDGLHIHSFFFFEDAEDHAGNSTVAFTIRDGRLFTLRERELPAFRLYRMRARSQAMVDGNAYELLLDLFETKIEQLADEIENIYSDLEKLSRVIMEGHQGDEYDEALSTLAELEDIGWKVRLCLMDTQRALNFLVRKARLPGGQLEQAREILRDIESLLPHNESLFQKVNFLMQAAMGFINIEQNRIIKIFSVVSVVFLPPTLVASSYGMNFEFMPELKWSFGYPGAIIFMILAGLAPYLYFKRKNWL", "settings": "Kucharski et al., 2000, read-out: IC50 for CorA inhibition; cited from earlier work"}, "hepatocytes": {"system": "hepatocytes", "experiment": "Cellular uptake assay (GFAAS, Co normalised to protein)", "assay_type": "in vitro ADME, murine", "settings": "intact hepatocytes", "procedure": "Cellular uptake assay. Hepatocytes were treated with varying doses of CPACC for 30 minutes, cells were washed in Ca^2+ and Mg^2+ free DPBS, and cell pellets flash-frozen. Pellets were suspended in ice cold lysis buffer (0.1% Triton X-100 and 0.2% HNO3 in ultrapure water). The suspension was vortexed for 30 s and incubated on ice for 45 min. The cell lysate was centrifuged, and the supernatant was transferred to a clean tube prior to analysis. The Co^3+ content of the lysate was determined using graphite furnace atomic absorption spectroscopy (GFAAS) and was normalized to the protein content of the sample, which was determined using the bicinchoninic acid (BCA) assay kit following manufacturer instructions (ThermoFisher). Results are reported as the average mass ratio of Co to protein (pg/μg) in each sample±SEM."}, "HIF-1α": {"system": "HIF-1α", "settings": "cell culture", "excerpt": "HIF-1α is stabilized in Mrs2−/− mice. To examine the intrinsic role of Mrs2, Mrs2^−/− mice were challenged to LPS-induced inflammatory response. It was noticed that there was a barely detectable HIF-1α stabilization in control but a significant HIF-1α protein accumulation following LPS stimulation in Mrs2^−/− hepatocytes (Daw et al., 2020). […] It was envisioned that loss of Mrs2 in hepatocyte mitochondria might control metabolite fluxes that regulates HIF-1α stability under normoxic conditions. HIF-1α is the most commonly studied transcription factor that responds to oxygen tension and its stabilization controls numerous metabolic cascades, including glycolysis and oxidative phosphorylation (Kaelin and Ratcliffe, 2008; Lum et al., 2007; Semenza, 2013). A targeted metabolite screen was conducted to identify whether these metabolites potentially altered in Mrs2^−/− control HIF-1α stabilization. WT hepatocytes were treated with the PHD inhibitor FG-4952 for 6 hours in the presence or absence of metabolites (Buckley et al., 2012). […] Next it was explored whether citric acid mediated HIF-1α destabilization is a hydroxylation dependent mechanism by reconstitution of hydroxylation-dead mutant HIF-1α in COS-7 cells (Yan et al., 2007). […] Next tested the potency of citric acid and sodium citrate was tested. Hepatocytes isolated from WT or Mrs2^−/− mice were treated for 6 hours. HIF-1α stabilization was less affected by di- or tri-sodium citrate than by citric acid (FIG. 9G). […] The citric acid-mediated HIF-1α destabilization was intact in multiple chemical modalities (FIG. 9H) and the intracellular chelation of Mg^2+ ions suppressed FG-4952-induced HIF-1α stabilization (FIG. 9I). […] Furthermore, COS-7 cells were more sensitive to the HIF-1α stabilizing effect compared to hepatocytes. […] Next HIF-1α abundance was tested in liver tissues harvested from dietary cohorts. HIF-1α protein expression/stabilization was prominent in both Mrs2^−/− and Mrs2^−/− WD, whereas HIF-1α protein was nearly completely absent in WT WD (FIG. 9M). This supports the elevation of HIF-1α protein level as a key mechanism driving transcription changes in Mrs2^−/− WD livers.\nImmunoblotting. Crushed tissues were homogenized in lysis buffer (ThermoFisher) on ice for one minute (20-30 strokes) using an automatic Dounce homogenizer set to 2000 RPM. Whole cell lysate was prepared in lysis buffer (Abcam) using 3 sets of 3-second sonication (power level 3) intervals on ice. Protein concentration was estimated using Pierce BCA assay kit and samples were prepared and heated for 90° C. for 5 minutes. Equal amounts of protein were loaded and separated on 4%-12% Bis-Tris polyacrylamide gel (Thermo Fisher Scientific), transferred to a PVDF membrane, blocked for 1-2 h using 5% fat free skim milk, washed and finally, probed with corresponding antibodies as specified below. Antibodies were from Cell Signaling Technology (HIF-1α and Hydroxy HIF-1α dilution 1:3000, MCU dilution 1.5000, MICU1 dilution 1:3000), Abcam Abcam (CPT-1a, CPT-2, OXPHOS cocktail dilution 1:3000), ZYMED Laboratories (β-actin; dilution 1:1,000), and Amersham (secondary antibodies conjugated with peroxidase). Development was done using X-ray film using a series of timed exposures and Image J was used for densitometric analysis on scanned film images."}},
  "data": [
    {"smiles": "[NH2][Co]([NH2])([NH2])([NH2])([NH2])[Cl]", "note": "[CPACC, chloropentaammine cobalt (III) chloride]", "values": [
      {"measurement": "IC50", "setting": "Bacterial CorA", "result": "~100", "unit": "µM"},
      {"measurement": "cellular accumulation of the compound (intracellular Co)", "setting": "hepatocytes", "result": "accumulates in the cell in a dose-dependent manner"},
      {"measurement": "HIF-1α stabilization by the compound", "setting": "HIF-1α", "result": "partial stabilization"}
    ]}
  ]
}
